Experimental data from patent US20080262228A1, “Metabolites of 5-fluoro-8- quinoline and methods of preparation and uses thereof” (Wyeth, priority 2006, published 2008).
Where a name gives a salt, the structure may show the parent alone.

Key:
[1] = Metabolite characterization in cryopreserved hepatocytes; conditions: hepatocyte incubations, 20 μM; R, rat; D, dog; H, human; Media = decomposition product observed in media control
Protocol: Pooled male rat, dog, and mixed male and female human cryopreserved hepatocytes were used in this study. The cryopreserved hepatocytes (two vials from each species; three to five million viable cells per vial) were thawed in a 37° C. water bath with gentle shaking until the ice was almost melted. The suspensions from the two individual vials of the same species were immediately transferred to a 50 mL centrifuge tube containing pre-warmed thawing media at 37° C. with gentle handshaking to prevent the cells from settling. The cell suspension was centrifuged at 50 g for 5 min at 4° C. Supernatants were discarded and the pellets were resuspended in pre-warmed incubation media (8 mL) at 37° C. […] [^14C]COMPOUND I (20 μM) was incubated in a 12-well plate containing hepatocyte suspensions at 1.0 mL per well in duplicate (≧1 million viable cells/well) at 37° C. for 1 or 4 hr in the presence of 5% CO2:95% O2. Control incubations without hepatocytes were also run under the same conditions. Positive controls containing [^14C]7-ethoxycoumarin (100 μM) were also incubated under the same conditions, but only for 1 hr. At the end of the incubations, reactions were stopped by adding acetonitrile with 2% acetic acid (1 mL), mixed for 10 min, followed by centrifugation at 4000 rpm for 10 min at 4° C. Aliquots (50 μL) of supernatants were analyzed by HPLC with UV and radioactivity flow detection for metabolite profiling, and by LC/MS for metabolite identification as described in below. To determine extraction recovery, aliquots (20 μL) of supernatants were analyzed for radioactivity content utilizing a Packard Tri-Carb Model 3100 TR liquid scintillation counter and 5 mL of Ultima Gold.
The HPLC system used for mass spectrometric analysis was a Waters Alliance model 2695 HPLC system (Waters Corp). It was equipped with a built-in autosampler and a model 996 diode array UV detector. The UV detector was set to monitor 210-400 nm. The HPLC conditions were the same as those described hereinabove with the following exceptions. […]

[2] = In vivo metabolism and excretion of [14C]COMPOUND I in male beagle dogs, single oral 3 mg/kg dose; parameters: species or system dog; conditions: 3 mg/kg oral
Protocol: Dose preparation, animal dosing, and specimen collection were performed at Wyeth Research, Collegeville, Pa. The vehicle contained 2% (w/v) polysorbate 80, NF and 0.5% (w/v) methylcellulose (4000 cps) in water. [^14C]COMPOUND I trisuccinate salt (50.25 mg) and non-labeled COMPOUND I trisuccinate salt (331.9 mg) were suspended in 72 mL of the vehicle by grinding with a mortar and a pestle. The target [^14C]COMPOUND I concentration was approximately 3 mg/mL as free base and 48 μCi/mL with a target specific activity of 16 μCi/mg. Three pre- and post-dose aliquots (100 μL) were taken for the determination of radiochemical purity, drug and radioactivity concentrations and specific activity (see below).
Four male beagle dogs, weighing from 9.4 to 11.5 kg at the time of dosing, were from an in-house colony. Non-fasted dogs were given a single 3 mg/kg (approximately 48 μCi/kg) dose of [^14C]COMPOUND I at a volume of 1 mL/kg via intragastric gavage. Animals were provided Purina dog chow and water ad libitum, and were housed individually in metabolic cages.
Blood samples were collected from the jugular vein at 1, 4, 8, 24, 48, 72 and 120 hr after dose administration into tubes containing potassium EDTA as the anticoagulant and then placed on ice. Aliquots of 200 μL were removed and plasma was harvested immediately from the remaining blood by centrifugation at 4° C. Urine samples were collected into tubes on dry ice from 0-24 and 24-48 hr, and then at ambient temperature at 24 hr intervals for 7 days post-dose. Fecal samples were collected at 24 hr intervals for 7 days post-dose at room temperature. Cage rinses were collected daily by rinsing each cage with approximately 500 mL of 30% ethanol in water. The dose aliquots and biological specimens were stored at approximately −70° C. until analysis.
Triplicate aliquots of diluted dose (20 μL), dose fractions (10 μL) and plasma (50 μL), urine (200 μL) and cage wash (500 μL) from individual dogs were analyzed for radioactivity content. The samples were assayed in a Tri-Carb Model 3100TR liquid scintillation counter (Perkin Elmer) using 5 mL of Ultima Gold scintillation cocktail.
Fecal samples from individual dogs were weighed and homogenized in water at a volume-to-weight ratio of about 4:1 with a Silverson sealed-unit homogenizer at ambient temperature. Triplicate aliquots of whole blood (50 μL) and fecal homogenates (approximately 0.2 g) were placed into Combusto-cones with Combusto-pads and allowed to dry overnight. Samples were combusted with a model 307 Tri-Carb Sample Oxidizer, equipped with an Oximate-80 Robotic Automatic Sampler (Perkin Elmer). The liberated ^14CO2 was trapped with Carbo-Sorb® E carbon dioxide absorber, mixed with PermaFluor® E+liquid scintillation cocktail, and counted in a Tri-Carb Model 3100 TR/LL liquid scintillation counter.
Plasma samples were pooled by mixing equal volumes from four animals at each time point (1, 4, 8 and 24 hr). Aliquots of 2.0 mL of pooled plasma were mixed with 2.0 mL of acetonitrile, placed on ice for about 10 min, and then centrifuged at 4° C. The supernatant was transferred to a clean tube. The protein pellets were extracted two more times with 2.0 mL of acetonitrile. The supernatants from precipitation and extraction of each sample were pooled, mixed, and evaporated at 22° C. under nitrogen in a TurboVap LV evaporator (Caliper Life Sciences, Hopkinton, Mass.) to about 0.8 mL. The concentrated extract was centrifuged, the supernatant volume measured and the extraction efficiency was determined by analyzing duplicate 10 μL aliquots for radioactivity concentrations. For metabolite profiling, an aliquot of the supernatant (200 μL) was injected onto the HPLC column as described hereinbelow, and fractions were collected at 20 second intervals into 96-well Lumaplates (Perkin Elmer).

Source [1]: R (trace), D, H
Source ([2]; P, plasma, F, feces): P, F
percent of total fecal radioactivity ([2]; pooled 0-24 hr fecal sample): 79.3%
percent of total fecal radioactivity ([2]; pooled 24-48 hr fecal sample): 60.9%
Compound: Oc1cc(N2CCN(C3CCN(c4ccc(F)c5cccnc45)CC3)CC2)c2ncccc2c1 [Metabolite M21, 8-{4-[1-(5-fluoroquinolin-8-yl)piperidin-4-yl]piperazin-1-yl}quinolin-6-ol trihydrochloride]
